Consider five compounds from patent US20230172919A1, “AN INSULIN SENSITIZER FOR USE IN THE PREVENTION AND/OR TREATMENT OF THE DAMAGES CAUSED BY RETINAL DETACHMENT” (SORBONNE UNIVERSITE, priority 2020, published 2023).

Assay [1] relates to PNA+CAR+ cones of C57BL/6J retinal explants. The experiment in a line: Retinal explants culture, cone quantification. Type of assay: cell-based, mouse (C57BL/6J). The following applies: 5-day retinal explants. On the procedure: C57BL/6J retina were prepared and placed on polycarbonate filters floating on Dulbecco’s modified Eagle’s medium (DMEM, Thermo Fisher Scientific) with the photoreceptors facing down. For the experiment, retinal explants were cultured in high glucose (25 mM) DMEM alone or supplemented with human insulin (Umuline NPH), human insulin and insulin receptor inhibitor (Hydroxy-2-naphthalenylmethylphosphonic acid (HNMPA), Abcam) or vehicle (DMSO) at 37° C. […] For this reason, HNMPA was used at a concentration 10-fold higher than the IC50 (1 mM). Each culture medium was renewed every 36 hours and after 5 days, the retinal explants were carefully removed. Immunohistochemistry and cones quantification were then performed as described for retina below.
Eyes were enucleated, fixed in 4% paraformaldehyde for 1 hour at room temperature and sectioned at the limbus; the cornea and lens were discarded. […] The retinas were flat mounted and viewed with a fluorescence microscope (DM5500, Leica). […] Each cell population was manually counted in a masked fashion. IBA-1+ cells were quantified on flat mounts on the outer segment side of the detached retina while PNA+ cone arrestin+ cells were counted on confocal microscopy Z-stacks using ImageJ software.

In assay [2] the test system is RD-induced cone loss and subretinal IBA-1+ MPs in C57BL/6J mice. As to the kind of experiment: Mouse model of RD (retinal detachment), retinal flat mount quantification. Format: in vivo, mouse (C57BL/6J). Conditions: for number of PNA+CAR+ cones (cone survival) / numbers of subretinal IBA1+ MPs: day 7 after RD, subretinal injection in diluted sodium hyaluronate (insulin 2 IU/ml, IGF-1 200 ng/ml, metformin 50 mg/ml), compared to PBS controls. On the procedure: Wild-type (C57BL/6J) mice were purchased from Janvier Labs at the age of 8 weeks. Mice were housed in the animal facility under specific pathogen-free condition, in a 12 h/12 h light/dark (100-500 lux) cycle with water and normal diet food available ad libitum. All experimental protocols and procedures were approved by the local animal care ethics committee (N°APAFIS#5201-20160427103344).
RD was induced with a previously described method (Nakazawa et al., 2006, 2007a, 2011). Briefly, mice were anesthetized with an intraperitoneal injection of xylazine hydrochloride (10 mg/kg) and ketamine hydrochloride (100 mg/kg) and pupils were dilated with topical phenylephrine (5%) and tropicamide (0.5%). A 30-gauge needle was first used to create two sclerotomies 1.5 mm posterior to the limbus. A glass needle (with a […] manually beveled tip) connected to a Hamilton syringe filled with diluted sodium hyaluronate (Healon GV®, Alcon) was then introduced into the vitreous cavity through one of the sclerotomy. The tip of the needle was finally inserted into the subretinal space through a peripheral retinotomy and 4 µl of diluted sodium hyaluronate containing or not recombinant human TSP-1 (100 µg/ml, Biotechne), human insulin (2 IU/ml, Umuline NPH), recombinant IGF-1 (200 ng/ml, Biotechne) or metformin (50 mg/ml), was gently injected, detaching approximately two-third of the retina from the underlying RPE.
For treatment with rosiglitazone, mice received intraperitoneal injections of 10 mg/kg rosiglitazone or vehicle (5% DMSO) 3 days before and 4 to 7 days after RD induction.
Eyes with subretinal hemorrhage were excluded from analysis. Mice were sacrificed from 1 to 10 days following RD, according to the experiment.
Eyes were enucleated, fixed in 4% paraformaldehyde for 1 hour at room temperature and sectioned at the limbus; the cornea and lens were discarded. The retinas were peeled from the RPE/choroid/sclera and incubated overnight at 4° C. in PBS-1% triton with the following primary antibodies: peanut agglutinin Alexa fluor® 594 (Thermo Fisher Scientific; 1/100), rabbit polyclonal anti-human cone arrestin antibody (LUMIF-hCAR; 1:10000) and goat polyclonal anti-IBA1 (1/100). After few washes, the retinas were incubated for 2 hours at room temperature with appropriate Alexa Fluor® conjugated secondary antibodies (Thermo Fisher Scientific; 1:500) in PBS-1% triton and nuclei were counterstained with Hoechst (1:1000, Sigma Aldrich). The retinas were flat mounted and viewed with a fluorescence microscope (DM5500, Leica). Images centered on the area with the lowest number of PNA+ cone arrestin+ cells were captured with a confocal laser-scanning microscope (FV1000, Olympus) using a 40X lens. Each cell population was manually counted in a masked fashion. IBA-1+ cells were quantified on flat mounts on the outer segment side of the detached retina while PNA+ cone arrestin+ cells were counted on confocal microscopy Z-stacks using ImageJ software.

On to `O=P(O)(O)C(O)c1ccc2ccccc2c1` (stereo not drawn) [HNMPA, Hydroxy-2-naphthalenylmethylphosphonic acid, reference compound], for which the “PNA+CAR+ cones after addition of insulin receptor inhibitor” value in assay [1] (high glucose DMEM with human insulin, HNMPA 1 mM, versus vehicle (DMSO)) is “severe loss”.

Regarding `CN(C)C(=N)N=C(N)N` [metformin, reference compound], in assay [2], the “number of PNA+CAR+ cones (cone survival)” value is recorded as “increased” and the “numbers of subretinal IBA1+ MPs” value is listed as “significantly decreased”.

Take `CN(CCOc1ccc(CC2SC(=O)NC2=O)cc1)c1ccccn1` (stereo not drawn) [rosiglitazone, reference compound]: the “number of infiltration of subretinal IBA-1+ MPs” value in assay [2] (day 7 of RD, daily intraperitoneal 10 mg/kg from 3 days before and throughout RD, versus vehicle (DMSO 5%)) is “no effect”.

For “IGF-1: recombinant IGF-1 (Biotechne), insulin-like growth factor”, in assay [2], the “number of PNA+CAR+ cones (cone survival)” value is recorded as “no effect” and the “numbers of subretinal IBA1+ MPs” value was “no effect”.

Consider insulin: human insulin (Umuline NPH), for which, in assay [2], the “number of PNA+CAR+ cones (cone survival)” value was “very significantly increased” and the “numbers of subretinal IBA1+ MPs” value was “did not alter”. In assay [1] (high glucose (25 mM) DMEM, human insulin 5 mIU/ml, compared to the control condition), the “cone survival (PNA+CAR+ cones)” value is “significantly increased”.
